Laboratory results from EP4635969A1, “NOVEL GLUCOCORTICOID, METHOD FOR PREPARING SAME, AND USE THEREOF” (Tianjin Pharmaceutical Biotechnology Co., Ltd., priority 2022, dated 2024).
Where two headings read alike, the source gives them in different places.

Experiments:
asthma model mice = experiment: Anti-asthma pharmacodynamic experiment: airway hyperresponsiveness (Penh) after methacholine challenge; assay type: in vivo, female BALB/c mice; details: for Penh values in mice, Methacholine concentration (mg/ml) 0 / Penh values in mice, Methacholine concentration (mg/ml) 6.25 / Penh values in mice, Methacholine concentration (mg/ml) 12.5: 0.3 mg/mL, 50 µL intratracheally once daily for 3 days; for Penh values in mice, Methacholine concentration (mg/ml) 0: methacholine 0 mg/ml; for Penh values in mice, Methacholine concentration (mg/ml) 6.25: methacholine 6.25 mg/ml; for Penh values in mice, Methacholine concentration (mg/ml) 12.5: methacholine 12.5 mg/ml
Protocol: Pharmacological Example 4: Pharmacodynamic Experiment on Anti-Asthma
The suspensions were stored at room temperature protected from light until use.
Positive control drug: Budesonide Suspension for Inhalation (specification: 2 mL: 1 mg; AstraZeneca Inc.; Lot No. : 327392) was diluted with injection-grade sodium chloride solution to 0.3 mg/ml as the positive control drug, and stored at room temperature protected from light until use.
Sixty female BALB/c mice underwent a one-week adaptive feeding period. Ten mice were randomly selected as the blank control group, while 50 mice were selected to establish asthma models.
From days 21 to 23 after sensitization, the mice in the model group and drug administration group were exposed to a 30-minute aerosol challenge with 5% OVA, while the mice in the blank control group were exposed to normal saline aerosol for the same duration.
Airway responsiveness was measured in all groups of mice after the last challenge. The mice were placed into a plethysmography chamber, and baseline Penh values were recorded. Subsequently, the mice were challenged with aerosolized methacholine at concentrations from low to high of 0, 6.25, and 12.5 mg/mL, with an aerosol volume of 100 µ L each time for 60 s. […] Penh values were then recorded for 3 min and averaged to compare the airway responsiveness of each group of mice.
Statistical analysis was performed using SPSS software. Measurement data were expressed as mean ± standard deviation. One-way ANOVA was used for intergroup comparisons. For data with homogeneous variance, LSD test was used; for data with heterogeneous variance, Dunnett-t test was used. A value of P < 0.05 was considered statistically significant.

[1] = test system: inflammatory cytokines IL-6 and IL-12; experiment: Anti-asthma pharmacodynamic experiment: inflammatory cytokines in bronchoalveolar lavage fluid (ELISA); assay type: in vivo, female BALB/c mice; details: for IL-6 / IL-12: bronchoalveolar lavage fluid, 0.3 mg/mL, 50 µL intratracheally once daily for 3 days
[2] = test system: intraocular pressure of guinea pigs; experiment: Adverse reactions of continuous ocular administration: intraocular pressure; assay type: in vivo
Protocol: Pharmacological Example 9: Experiment on Adverse Reactions of Continuous Ocular Administration in Guinea Pigs
Test samples: Compounds 17 and 23 were prepared as 5 mg/5 mL ophthalmic suspensions with reference to the formulation of Fluorometholone Eye Drops, and stored at room temperature protected from light until use.
Positive control drug: Fluorometholone Eye Drops (specification: 5 mL/5 mg; Santen Pharmaceutical (CHINA) Co., Ltd.; Lot No.: 1FM6545), Loteprednol Etabonate Eye Drops (specification 0.5% (5 mg/mL); Shandong Bausch & Lomb Freda Pharmaceutical Co., Ltd; Lot No. 386521), stored at room temperature protected from light until use.
Animals: 50 guinea pigs, conventional grade, with an equal number of males and females, weighing 300-350 g..
Animal grouping: After 5 days of adaptive feeding, the guinea pigs were randomly divided into 5 groups based on body weight. Group 1 was the blank control group, and 50 µL of normal saline was dropped into the eyes (bilateral) of the guinea pigs. Groups 2 to 5 were the fluorometholone group, loteprednol group, compound 17 group, and compound 23 group, respectively, and the corresponding drugs were dropped into the eyes (bilateral) of the guinea pigs. Table 19. Animal grouping and drug administration dosages for the experiment on adverse reactions of continuous ocular administration in guinea pigs
Intraocular pressure measurement time: The intraocular pressure of animals in each group was measured before administration and on days 7, 14, 21, and 28 post-administration.

[3] = molecular target: T1, mineralocorticoid receptor (MR) (Homo sapiens, UniProt P08235); experiment: Assay for agonist activity on mineralocorticoid receptor (luciferase reporter, HEK293 cells transfected with pBIND-MR plasmid); assay type: cell-based; details: for EC50: EC50 of agonist activity, HEK293 reporter cells, top concentration 50 µM, read-out: Nuclear receptor enzyme activity (nM) MR; for Target selectivity MR/GR: ratio of EC50 values
T1 sequence (P08235 726-984): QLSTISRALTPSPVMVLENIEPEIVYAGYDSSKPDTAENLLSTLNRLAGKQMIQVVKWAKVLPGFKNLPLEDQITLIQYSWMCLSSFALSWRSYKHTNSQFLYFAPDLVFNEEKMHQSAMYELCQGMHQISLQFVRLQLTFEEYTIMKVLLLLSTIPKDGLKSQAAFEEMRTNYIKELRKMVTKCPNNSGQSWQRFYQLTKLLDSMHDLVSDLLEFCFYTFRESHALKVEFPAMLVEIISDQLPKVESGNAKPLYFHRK
Protocol: (§1) Pharmacological Example 2: Assay for Agonist Activity on Mineralocorticoid Receptor (MR) and Progesterone Receptor (PR)
(§2) Test compound stock solutions: The test compounds (compounds 4, 5, 7, 8, 9, 11, 13, 16, 17, 18, 22, 23, 24, 34, 35, 36, 38, 41, 45, 47, 53, 55, and 59) were accurately weighed, dissolved in DMSO to prepare stock solutions at a concentration of 20 mM, and stored at -20 °C.
(§3) The test compounds were subjected to a 4-fold serial dilution starting from an initial concentration of 50 µ M, generating a 12-point concentration gradient with duplicate wells for each concentration. The blank control consisted of 0.1% DMSO.
(§4) The HEK293 stable cell lines […] transfected with mineralocorticoid receptor (MR) and progesterone receptor (PR) (ICE Bioscience, Lot No. TYP-20220819, TPJ-20220812) were cultured in Dulbecco's Modified Eagle Medium (DMEM) supplemented with 10% fetal bovine serum (FBS) and 200 µ g/ml Hygromycin B in a cell incubator containing 5% CO2 at 37 °C. The spent medium was aspirated, and the cells were washed once with phosphate-buffered saline (PBS). Then, 1 mL of TrypLE™ Express solution was added, and the cells were incubated at 37 °C for approximately 2 min. When the cells detached from the bottom of the cell culture dish, approximately 5 mL of pre-warmed complete medium at 37 °C was added. The cell suspension was gently pipetted with a pipette to dissociate clumped cells. The cell suspension was transferred to a sterile centrifuge tube and centrifuged at 1000 rpm for 5 min to pellet the cells for experiments or subculture..
(§5) HEK293 cells were digested and seeded into 6-cm culture dishes. The pBIND-MR and pBIND-PR plasmids were separately transfected into the HEK293 cells using a transfection reagent, resulting in HEK293 cells successfully transfected with the pBIND-MR and pBIND-PR plasmids, respectively. The cells were resuspended in phenol red-free DMEM medium containing 5% charcoal-stripped serum, counted, and then seeded into 96-well plates. The test compounds were added, and the plates were then incubated in an incubator. The luminescence signal values were measured using a multimode microplate reader following the instructions of the luciferase assay kit. The EC50 values of each test compound were calculated using the nonlinear fitting formula with GraphPad Prism 8.0 software.

[4] = molecular target: T2, progesterone receptor (PR) (Homo sapiens, UniProt P06401); experiment: Assay for agonist activity on progesterone receptor (luciferase reporter, HEK293 cells transfected with pBIND-PR plasmid); assay type: cell-based; details: for EC50: EC50 of agonist activity, HEK293 reporter cells, top concentration 50 µM, read-out: Nuclear receptor enzyme activity (nM) PR; for Target selectivity PR/GR: ratio of EC50 values
T2 sequence (P06401 678-933): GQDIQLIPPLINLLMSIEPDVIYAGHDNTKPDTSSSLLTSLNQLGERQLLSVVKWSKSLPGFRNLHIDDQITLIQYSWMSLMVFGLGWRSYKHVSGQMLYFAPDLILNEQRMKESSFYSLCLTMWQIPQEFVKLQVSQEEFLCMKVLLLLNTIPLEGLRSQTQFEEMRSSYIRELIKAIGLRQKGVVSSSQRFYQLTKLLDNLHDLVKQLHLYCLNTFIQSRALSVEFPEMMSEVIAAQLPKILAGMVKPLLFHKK
Protocol: as §1, §2, §3, §4, §5

[5] = molecular target: T3, glucocorticoid receptor (GR) (Homo sapiens, UniProt P04150); experiment: Assay for agonist activity on glucocorticoid receptor (luciferase reporter, HEK293 cells transfected with pBIND-GR plasmid); assay type: cell-based
T3 sequence (P04150 521-777): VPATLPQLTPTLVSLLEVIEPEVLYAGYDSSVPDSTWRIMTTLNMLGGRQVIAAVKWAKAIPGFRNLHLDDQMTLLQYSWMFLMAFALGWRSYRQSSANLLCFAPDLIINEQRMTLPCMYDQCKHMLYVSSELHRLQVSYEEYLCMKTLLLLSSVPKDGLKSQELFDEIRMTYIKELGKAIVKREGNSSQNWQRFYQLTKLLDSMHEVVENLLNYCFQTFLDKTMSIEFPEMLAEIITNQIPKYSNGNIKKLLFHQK
Summary of the method: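 HEK293 cells transfected with pBIND-GR, seeded in phenol red-free DMEM with 5% charcoal-stripped serum, then exposed to compounds in a 10-point, 4-fold dilution series from 10 µM, in duplicate. Luciferase luminescence read after incubation; EC50 from nonlinear fit. Vehicle blank: 0.1% DMSO.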

[6] = EC50 of agonist activity, HEK293 reporter cells, read-out: Nuclear receptor enzyme activity (nM) GR
[7] = HEK293 cells transfected with pBIND-GR, luciferase signal, read-out: GR agonist EC50

Row | Structure (SMILES) | EC50 [3] [nM] | EC50 [4] [nM] | EC50 [5, 6] [nM] | EC50 [5, 7] [nM] | Target selectivity MR/GR [3] | Target selectivity PR/GR [4] | also measured
1 | CCCC1O[C@@H]2C[C@H]3[C@@H]4CCC5=CC(=O)C=C[C@]5(C)[C@H]4[C@@H](O)C[C@]3(C)[C@]2(C(=O)CO)O1 (some centres unmarked) [Budesonide, reference compound] |  |  |  |  |  |  | Penh values in mice, Methacholine concentration (mg/ml) 0 (asthma model mice): 1.12 ± 0.30; Penh values in mice, Methacholine concentration (mg/ml) 6.25 (asthma model mice): 1.65 ± 0.29; Penh values in mice, Methacholine concentration (mg/ml) 12.5 (asthma model mice): 2.14 ± 0.38; IL-6 [1]: 21.5 ± 6.8 pg/mL; IL-12 [1]: 17.5 ± 4.9 pg/mL
2 | CCOC(=O)O[C@]1(C(=O)OCCl)CC[C@H]2[C@@H]3CCC4=CC(=O)C=C[C@]4(C)[C@H]3[C@@H](O)C[C@@]21C [Loteprednol, Loteprednol Etabonate, reference compound] |  |  |  |  |  |  | intraocular pressure after continuous ocular administration [2]: intraocular pressure elevation was detected on day 7; Intraocular pressure of guinea pigs (mmHg) D0 ([2]; D0, before administration, 50 µL/eye (compounds and fluorometholone 1 mg/mL, loteprednol 5 mg/mL)): 14.0 ± 1.8 mmHg; Intraocular pressure of guinea pigs (mmHg) D7 ([2]; D7, 50 µL/eye (compounds and fluorometholone 1 mg/mL, loteprednol 5 mg/mL)): 19.0 ± 3.5 mmHg; Intraocular pressure of guinea pigs (mmHg) D14 ([2]; D14, 50 µL/eye (compounds and fluorometholone 1 mg/mL, loteprednol 5 mg/mL)): 18.5 ± 1.5 mmHg; Intraocular pressure of guinea pigs (mmHg) D21 ([2]; D21, 50 µL/eye (compounds and fluorometholone 1 mg/mL, loteprednol 5 mg/mL)): 18.5 ± 0.7 mmHg; Intraocular pressure of guinea pigs (mmHg) D28 ([2]; D28, 50 µL/eye (compounds and fluorometholone 1 mg/mL, loteprednol 5 mg/mL)): 19.5 ± 0.6 mmHg
3 | C[C@]12C=CC(=O)C=C1[C@@H](F)C[C@H]1[C@@H]3C[C@H]4OC(c5ccc(CSC6COC(=O)C6)cc5)O[C@@]4(C(=O)CO)[C@@]3(C)C[C@H](O)[C@@]12F (stereo partly drawn) [Compound 11, (2S,6aS,6bR,7S,8aS,8bS,11aR,12aS,12bS)-2,6b-Difluoro-7-hydroxy-8b-(2-hydroxyacetyl)-6a,8a-dimethyl-10-(4-(((5-oxotetrahydrofuran-3-yl)thio)methyl)phenyl)-1,2,6a,6b,7,8,8a,8b,11a,12,12a, 12b-dodecahydro-4H-naphtho[2',1':4,5]indeno[1,2-d][1,3]dioxol-4-one] | > 50000 | > 50000 |  |  |  |  | Penh values in mice, Methacholine concentration (mg/ml) 0 (asthma model mice): 1.08 ± 0.18; Penh values in mice, Methacholine concentration (mg/ml) 6.25 (asthma model mice): 1.45 ± 0.31; Penh values in mice, Methacholine concentration (mg/ml) 12.5 (asthma model mice): 1.92 ± 0.34; Effects on airway hyperresponsiveness (Penh values) in mice (asthma model mice; compared with the model group): significantly decreased the Penh values in mice; IL-6 [1]: 16.3 ± 7.9 pg/mL; IL-12 [1]: 11.1 ± 3.7 pg/mL; Effects on inflammatory cytokines in bronchoalveolar lavage fluid of mice ([1]; compared with the model group): extremely significantly decreased the levels of IL-6 and IL-12 in mice
4 | C[C@]12C=CC(=O)C=C1CC[C@H]1[C@@H]3C[C@H]4OC(c5ccc(CNC6CCOC6=O)cc5)O[C@@]4(C(=O)CO)[C@@]3(C)C[C@H](O)[C@@]12Cl (stereo partly drawn) [Compound 24, (6aS,6bR,7S,8aS,8bS,11aR,12aS,12bS)-6b-Chloro-7-hydroxy-8b-(2-hydroxyacetyl)-6a,8a-dimethyl-10-(4-(((2-oxotetrahydrofuran-3-yl)amino)methyl)phenyl)-1,2,6a,6b,7,8,8a,8b,11a,12,12a,12b-dodecahydro-4H-naphtho[2',1':4,5]indeno[1,2-d][1,3]dioxol-4-one] | > 50000 | > 50000 | 1.12 | 1.12 | > 4.5×10^4 | > 4.5×10^4 | 
5 | C[C@]12C=CC(=O)C=C1CC[C@H]1[C@@H]3C[C@H]4OC(c5ccc(CSC6CCOC6=O)cc5)O[C@@]4(C(=O)CCl)[C@@]3(C)C[C@H](O)[C@@]12Cl (stereo partly drawn) [Compound 38, (6aS,6bR,7S,8aS,8bS,11aR,12aS,12bS)-6b-chloro-8b-(2-chloroacetyl)-7-hydroxy-6a,8a-dimethyl-10-(4-(((2-oxotetrahydrofuran-3-yl)thio)methyl)phenyl)-1,2,6a,6b,7,8,8a,8b,11a,12,12a,12b-dode cahydro-4H-naphtho[2',1':4,5]indeno[1,2-d][1,3]dioxol-4-one] | > 50000 | > 50000 | 0.11 | 0.11 | > 4.5×10^5 | > 4.5×10^5 | 
6 | C[C@]12C=CC(=O)C=C1CC[C@H]1[C@@H]3C[C@H]4OC(c5cnc(CSC6CCOC6=O)nc5)O[C@@]4(C(=O)CO)[C@@]3(C)C[C@H](O)[C@@]12F (stereo partly drawn) [Compound 53, (6aS,6bR,7S,8aS,8bS,11aR,12aS,12bS)-6b-Fluoro-7-hydroxy-8b-(2-hydroxyacetyl)-6a,8a-dimethyl-10-(2-(((2-oxotetrahydrofuran-3-yl)thio)methyl)pyrimidin-5-yl)-1,2,6a,6b,7,8,8a,8b,11a,12,12a, 12b-dodecahydro-4H-naphtho[2',1':4,5]indeno[1,2-d][1,3]dioxol-4-one] | > 50000 | > 50000 | 8.31 | 8.31 | 6017 | 6017 | 
7 | C[C@]12C=CC(=O)C=C1[C@@H](F)C[C@H]1[C@@H]3C[C@H]4OC(C5CCN(C(=O)C6COC(=O)C6)CC5)O[C@@]4(C(=O)SCF)[C@@]3(C)C[C@H](O)[C@@]12F (stereo partly drawn) [Compound 4, S-(Fluoromethyl) (2S,6aS,6bR,7S,8aS,8bS,11aR,12aS,12bS)-2,6b-difluoro-7-hydroxy-6a,8a-dimethyl-4-oxo-10-(1-(5-oxotetrahydrofuran-3-carbonyl)piperidin-4-yl)-1,2,4,6a,6b,7,8,8a,11a,12,12a,12b-dodecahydro-8bH-naphtho[2',1':4,5]indeno[1,2-d][1,3]dioxole-8b-carbothioate] | > 50000 | > 50000 | 11.8 | 11.8 | > 4223 | > 4223 | 
